From publication doi:10.1101/2022.03.22.485260v1 (biorxiv, 2022)
Where two headings read alike, the source gives them in different places.

Legend:
[1] = target: T1, hTMPK (thymidylate kinase) (Homo sapiens, UniProt P23919); assay: NADH-coupled; format: biochemical
T1 sequence (P23919 2-212): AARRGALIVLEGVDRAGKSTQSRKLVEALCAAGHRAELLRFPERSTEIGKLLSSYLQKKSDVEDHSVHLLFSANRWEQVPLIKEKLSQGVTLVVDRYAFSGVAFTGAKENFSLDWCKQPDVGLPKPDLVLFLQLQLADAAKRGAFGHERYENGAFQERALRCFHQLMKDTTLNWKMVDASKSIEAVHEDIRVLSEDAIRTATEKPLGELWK

[2] = target: T1, hTMPK (thymidylate kinase); assay: NADH-coupled assay, […] min pre-incubation, non-linear fit; format: biochemical; conditions: ATP varied 0-200 μM, 500 μM TMP; mixed inhibition; pH 7.5, 25 °C

IC50 [1] | IC50 ([1]; 500 μM ATP, 500 μM dTMP, 10 mM MgCl2, pH 7.5, 25 °C) | Ki [2] | Compound
500 nM |  |  | CC(C)(C)OC(=O)N1CCN(C(=O)Cn2sc3ccccc3c2=O)CC1 [JMF2977]
 | 160 nM | 5 nM | Tert-butyl 4-(2-(5-fluoro-3-oxobenzo[d]isothiazol-2(3H)-yl) acetyl) piperazine-1-carboxylate [JMF4073]
